Here are results for two compounds from patent publication US8501233B2, “Compositions and methods for treating cancer” (Wake Forest University, priority 2007, dated 2013).

The test system of assay [1] is RKO cells. The assay can be described thus: Cell death of RKO cells with Mitomycin C compositions, MTS assay (Example 7). In kind it is cell-based, human. As to conditions: MMC 40 μM, including cells heated to 42° C. How it is done:
Three (3) 48 well plates containing 10,000-20,000 RKO cells/well (human colon carcinoma) were prepared for a series of experiments measuring cell death as a function of exposure to various compositions, including compositions according to some embodiments of the present invention.
RKO colorectal cancer cell lines were purchased from American Type Culture Collections (ATCC) and cultured in McCoys's media supplemented with 2.5 μg/ml of amphotericin, 1% L-glutamine, 1% penicillin/streptomycin, and 10% fetal bovine serum. Cells were seeded in wells of the appropriate trays at a density of 10,000-20,000 cells per well.
(§1) MWNTs were grown by chemical vapor deposition (CVD) using xylene as the carbon precursor and ferrocene as a catalyst at concentrations of 60 mg or 400 mg. Hydrogen and argon gases were used to flow the xylene through a preheater at 170° C. and a furnace oven at 700° C. An injection rate of 5 ml/hour for a one hour run yielded about 200 mg of carbon nanotubes.
(§2) 50 mg of the MWNTs were cut and cleaned by sonication in a mixture of 90 ml of concentrated sulfuric acid and 30 ml of concentrated nitric acid for 24 hours. The length of the nanotubes was about 2 μm as determined by transmission electron microscopy (TEM). MWNT suspensions were prepared by adding 1 mg of MWNT per 1 ml of aqueous solution comprising 0.1% by weight Pluronic 127® surfactant. […]
(In general: Formazan colour is commonly taken as a measure of viable cells.)

Assay [2] relates to RKO cells. As to the kind of experiment: Cell death / viability of RKO cells, MTS assay (Example 5). Type of assay: cell-based, human. As to conditions: oxaliplatin 300 μM, including cells heated to 42° C., MTS 48 hours after treatment. How it is done: Three (3) 48 well plates containing 10,000-20,000 RKO cells/well (human colon carcinoma) and three (3) 48 well plates containing 10,000-20,000 HCT 116 cell/well (human colon carcinoma) were prepared for a series of experiments measuring cell death as a function of exposure to various compositions, including compositions according to some embodiments of the present invention.
RKO and HCT 116 colorectal cancer cell lines were purchased from American Type Culture Collections (ATCC) and cultured in McCoys's media supplemented with 2.5 μg/ml of amphotericin, 1% L-glutamine, 1% penicillin/streptomycin, and 10% fetal bovine serum. Cells were seeded in wells of the appropriate trays at a density of 10,000-20,000 cells per well. […]
50 mg of the MWNTs were cut and cleaned by sonication in a mixture of 90 ml of concentrated sulfuric acid and 30 ml of concentrated nitric acid for 24 hours. The length of the nanotubes was about 2 μm as determined by transmission electron microscopy (TEM). […]
Following incubation, the media in the wells of each of the plates was replaced with media containing MTS assay reagents from Promega's CellTiter 96® AQueous assay kit. Cell viability was quantified over a three hour period according to the manufacturers instructions.

Assay [3] deals with HCT 116 cells. The assay can be described thus: Cell death of HCT 116 cells, single 8 second lasing (Example 8). In kind it is cell-based, human. To be noted: oxaliplatin 300 μM, including cells heated to 42° C. The protocol: Two (2) 48 well plates containing 10,000-20,000 HCT 116 cells/well (human colon carcinoma) were prepared for a series of experiments measuring cell death as a function of exposure to various compositions, including compositions according to some embodiments of the present invention.
HCT 116 colorectal cancer cell lines were purchased from American Type Culture Collections (ATCC) and cultured in McCoys's media supplemented with 2.5 μg/ml of amphotericin, 1% L-glutamine, 1% penicillin/streptomycin, and 10% fetal bovine serum. Cells were seeded in wells of the appropriate trays at a density of 10,000-20,000 cells per well.
as §1, §2

Assay [4] concerns HeLa cervical cancer cells. The assay can be described thus: In vivo evaluation of localized hyperthermia, intraperitoneal cancer nodules in athymic mice (Example 11). As to conditions: Group 3 irradiated 10 seconds (42° C.), Group 2 heated 42° C. two hours, two weeks after treatment.
Experimental: 15 athymic mice are divided equally into three treatment groups as provided in Table 13, with Group 1 receiving a treatment composition of 100 μg/ml of MWNTs, Group 2 receiving a treatment composition comprising 300 μM oxaliplatin, and Group 3 receiving a treatment composition comprising 300 μM oxaliplatin and 100 μg MWNT per ml.
Each animal of Groups 1-3 receives intraperitoneal injections of 1E6 HeLa cervical cancer cells which express folic acid receptors. […] Two weeks after the intraperitoneal injections of the cancerous cells, the intraperitoneal cavity of each animal in Groups 1-3 is exposed, and the cancer nodules photographed allowing size and number of the nodules to be recorded.
After examination and quantification of cancer nodules, two 5 ml solutions of FA functionalized MWNTs (100 μg/ml) are provided to the intraperitoneal cavity of each animal in Groups 1 and 3. […]
The animals of Groups 1-3 are allowed to recover for two weeks. […] The size and number of cancerous nodules at the time of sacrifice is compared to the initially recorded observations of size and number of cancerous nodules for each animal. Moreover, for each animal in the study, a total of about 1 to 10 mg of tumor nodule mass is retained to determine platinum content as determined by elemental analysis.
Assay [5] concerns RKO cells. As to the kind of experiment: Cell death of RKO cells after exposure to compositions, calorimetric assay (Example 4). As to conditions: oxaliplatin 300 μM, heated to 42° C. for two hours. In kind it is cell-based, human. The protocol:
Three (3) 48 well plates containing 20,000 RKO cells/well (human colon carcinoma) were prepared for a series of experiments measuring cell death as a function of exposure to various compositions, including compositions according to some embodiments of the present invention.
as §1
50 mg of the MWNTs were cut and cleaned by sonication in a mixture of 90 ml of concentrated sulfuric acid and 30 ml of concentrated nitric acid for 24 hours. The length of the nanotubes was about 2 μm as determined by transmission electron microscopy (TEM). MWNT suspensions were prepared by adding 1 mg of MWNT per 1 ml of aqueous solution having 0.1% by weight Pluronic 127® surfactant. The suspensions were sonicated to enhance MWNT dispersion. MWNT suspensions were diluted with water to a concentration of 100 μg MWNT/ml.
A solution comprising oxaliplatin at a concentration of 300 μM was obtained (Ox). […]
Cell death resulting from the addition of the various compositions at the three temperatures was monitored by calorimetric assay. […]

For `CO[C@@]12[C@H](COC(N)=O)C3=C(C(=O)C(C)=C(N)C3=O)N1C[C@@H]1N[C@@H]12` [MMC, Mitomycin C], the cell death result in assay [1] is listed as “significant death”.
Consider `O=C1[O][Pt]2([NH][C@@H]3CCCC[C@H]3[NH]2)[O]C1=O` [oxaliplatin], for which the cell death entry in assay [2] is given as “significant death”; in assay [3] it was “significant death”; in assay [5], “significant”. In assay [4], the “reduction in the sizes and numbers of cancerous nodules (Groups 2 and 3 compared)” value is “substantially similar reduction”.
